How the values were obtained:
[1] = biological target: T1, Prostaglandin G/H synthase 1 (Homo sapiens, UniProt P23219); assay type: functional
[2] = biological target: T2, Alpha-1A adrenergic receptor (Homo sapiens, UniProt P35348); assay type: functional, cell-based
T2 sequence (P35348 whole entry): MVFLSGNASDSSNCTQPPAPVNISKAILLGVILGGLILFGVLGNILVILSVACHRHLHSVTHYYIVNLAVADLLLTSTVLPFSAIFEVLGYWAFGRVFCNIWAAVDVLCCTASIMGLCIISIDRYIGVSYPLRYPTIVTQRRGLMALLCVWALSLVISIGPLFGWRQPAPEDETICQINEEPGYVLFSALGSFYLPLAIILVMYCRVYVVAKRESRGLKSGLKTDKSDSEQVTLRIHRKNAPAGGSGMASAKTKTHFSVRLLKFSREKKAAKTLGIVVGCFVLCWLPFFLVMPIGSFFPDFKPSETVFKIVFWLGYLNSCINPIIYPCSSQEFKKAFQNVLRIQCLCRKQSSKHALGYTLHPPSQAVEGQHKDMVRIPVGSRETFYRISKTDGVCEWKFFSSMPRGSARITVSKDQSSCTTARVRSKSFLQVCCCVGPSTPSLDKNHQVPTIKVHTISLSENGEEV

[3] = biological target: Mu-type opioid receptor (Homo sapiens, UniProt P35372)
[4] = biological target: T3, Alpha-2A adrenergic receptor (Homo sapiens, UniProt P08913)
T3 sequence (P08913 whole entry): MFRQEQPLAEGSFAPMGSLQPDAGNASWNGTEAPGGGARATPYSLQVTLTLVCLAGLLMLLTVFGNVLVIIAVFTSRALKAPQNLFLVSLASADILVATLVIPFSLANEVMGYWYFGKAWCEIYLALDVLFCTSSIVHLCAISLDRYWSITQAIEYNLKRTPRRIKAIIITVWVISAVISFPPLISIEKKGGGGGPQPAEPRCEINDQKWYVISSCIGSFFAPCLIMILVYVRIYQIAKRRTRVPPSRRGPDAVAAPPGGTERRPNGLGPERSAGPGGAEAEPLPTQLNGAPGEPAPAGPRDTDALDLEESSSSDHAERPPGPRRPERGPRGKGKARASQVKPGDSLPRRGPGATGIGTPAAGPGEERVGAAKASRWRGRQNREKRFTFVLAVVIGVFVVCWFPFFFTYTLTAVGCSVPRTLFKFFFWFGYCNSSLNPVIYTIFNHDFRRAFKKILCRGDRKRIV

[5] = biological target: T4, Muscarinic acetylcholine receptor M1 (Homo sapiens, UniProt P11229); assay type: functional, cell-based
T4 sequence (P11229 whole entry): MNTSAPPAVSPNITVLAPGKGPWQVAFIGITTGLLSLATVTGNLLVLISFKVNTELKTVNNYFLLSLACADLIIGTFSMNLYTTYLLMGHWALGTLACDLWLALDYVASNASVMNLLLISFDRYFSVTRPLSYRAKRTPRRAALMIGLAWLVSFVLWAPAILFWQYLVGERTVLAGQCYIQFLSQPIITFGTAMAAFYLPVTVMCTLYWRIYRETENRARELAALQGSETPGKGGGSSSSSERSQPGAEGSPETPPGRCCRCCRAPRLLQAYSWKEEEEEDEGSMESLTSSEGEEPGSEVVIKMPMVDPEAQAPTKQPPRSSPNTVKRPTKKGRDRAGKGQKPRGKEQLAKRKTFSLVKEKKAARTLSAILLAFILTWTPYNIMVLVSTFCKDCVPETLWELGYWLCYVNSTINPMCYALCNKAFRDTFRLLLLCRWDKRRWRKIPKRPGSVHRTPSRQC

[6] = biological target: 5-hydroxytryptamine receptor 2B (Homo sapiens, UniProt P41595); assay type: functional, cell-based
[7] = biological target: Histamine H3 receptor (Homo sapiens, UniProt Q9Y5N1)
[8] = biological target: T5, Progesterone receptor (Homo sapiens, UniProt P06401)
T5 sequence (P06401 whole entry): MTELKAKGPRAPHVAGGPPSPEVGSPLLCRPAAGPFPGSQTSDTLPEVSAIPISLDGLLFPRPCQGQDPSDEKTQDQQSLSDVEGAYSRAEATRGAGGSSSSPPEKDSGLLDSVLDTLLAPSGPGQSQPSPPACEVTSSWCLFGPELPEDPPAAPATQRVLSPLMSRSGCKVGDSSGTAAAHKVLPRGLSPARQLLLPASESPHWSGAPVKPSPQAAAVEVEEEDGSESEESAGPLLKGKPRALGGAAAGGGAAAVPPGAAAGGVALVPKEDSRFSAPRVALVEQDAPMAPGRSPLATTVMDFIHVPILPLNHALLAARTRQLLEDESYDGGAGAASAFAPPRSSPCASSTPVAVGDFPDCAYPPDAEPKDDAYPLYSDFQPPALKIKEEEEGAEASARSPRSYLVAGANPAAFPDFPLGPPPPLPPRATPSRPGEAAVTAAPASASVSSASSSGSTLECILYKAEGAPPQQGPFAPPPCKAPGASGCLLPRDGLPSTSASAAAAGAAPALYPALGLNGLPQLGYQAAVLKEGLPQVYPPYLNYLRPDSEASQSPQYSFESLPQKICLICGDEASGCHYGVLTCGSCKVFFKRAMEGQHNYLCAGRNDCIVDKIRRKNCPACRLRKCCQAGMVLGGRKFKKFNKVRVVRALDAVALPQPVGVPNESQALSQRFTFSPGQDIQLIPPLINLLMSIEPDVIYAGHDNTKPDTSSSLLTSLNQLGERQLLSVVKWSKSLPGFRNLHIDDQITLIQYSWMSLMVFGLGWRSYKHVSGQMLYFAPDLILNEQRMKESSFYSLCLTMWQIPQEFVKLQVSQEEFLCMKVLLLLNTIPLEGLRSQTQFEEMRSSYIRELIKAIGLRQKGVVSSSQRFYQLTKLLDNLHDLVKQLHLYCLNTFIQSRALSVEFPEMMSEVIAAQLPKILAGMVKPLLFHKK

[9] = biological target: 3',5'-cyclic-AMP phosphodiesterase 4A (Homo sapiens, UniProt P27815); assay type: functional
[10] = biological target: T1, Prostaglandin G/H synthase 1; assay type: functional; remark: listed apart in the source
[11] = biological target: Prothrombin (Homo sapiens, UniProt P00734); assay type: functional
Also: assay procedure not described here.

Histamine H3 receptor, sequence (Q9Y5N1 whole entry): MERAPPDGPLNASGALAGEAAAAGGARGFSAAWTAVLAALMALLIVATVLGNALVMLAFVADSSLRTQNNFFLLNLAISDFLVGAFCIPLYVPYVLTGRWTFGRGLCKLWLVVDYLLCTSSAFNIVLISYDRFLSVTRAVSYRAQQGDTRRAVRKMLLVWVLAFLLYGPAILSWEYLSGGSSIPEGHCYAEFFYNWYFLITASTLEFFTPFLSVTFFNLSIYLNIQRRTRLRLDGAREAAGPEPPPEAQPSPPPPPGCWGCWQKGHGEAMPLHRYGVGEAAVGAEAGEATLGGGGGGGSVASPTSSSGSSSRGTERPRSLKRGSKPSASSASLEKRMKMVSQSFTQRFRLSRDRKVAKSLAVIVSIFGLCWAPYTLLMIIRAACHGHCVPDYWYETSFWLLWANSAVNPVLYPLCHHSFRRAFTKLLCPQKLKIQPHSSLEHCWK
3',5'-cyclic-AMP phosphodiesterase 4A, sequence (P27815 whole entry): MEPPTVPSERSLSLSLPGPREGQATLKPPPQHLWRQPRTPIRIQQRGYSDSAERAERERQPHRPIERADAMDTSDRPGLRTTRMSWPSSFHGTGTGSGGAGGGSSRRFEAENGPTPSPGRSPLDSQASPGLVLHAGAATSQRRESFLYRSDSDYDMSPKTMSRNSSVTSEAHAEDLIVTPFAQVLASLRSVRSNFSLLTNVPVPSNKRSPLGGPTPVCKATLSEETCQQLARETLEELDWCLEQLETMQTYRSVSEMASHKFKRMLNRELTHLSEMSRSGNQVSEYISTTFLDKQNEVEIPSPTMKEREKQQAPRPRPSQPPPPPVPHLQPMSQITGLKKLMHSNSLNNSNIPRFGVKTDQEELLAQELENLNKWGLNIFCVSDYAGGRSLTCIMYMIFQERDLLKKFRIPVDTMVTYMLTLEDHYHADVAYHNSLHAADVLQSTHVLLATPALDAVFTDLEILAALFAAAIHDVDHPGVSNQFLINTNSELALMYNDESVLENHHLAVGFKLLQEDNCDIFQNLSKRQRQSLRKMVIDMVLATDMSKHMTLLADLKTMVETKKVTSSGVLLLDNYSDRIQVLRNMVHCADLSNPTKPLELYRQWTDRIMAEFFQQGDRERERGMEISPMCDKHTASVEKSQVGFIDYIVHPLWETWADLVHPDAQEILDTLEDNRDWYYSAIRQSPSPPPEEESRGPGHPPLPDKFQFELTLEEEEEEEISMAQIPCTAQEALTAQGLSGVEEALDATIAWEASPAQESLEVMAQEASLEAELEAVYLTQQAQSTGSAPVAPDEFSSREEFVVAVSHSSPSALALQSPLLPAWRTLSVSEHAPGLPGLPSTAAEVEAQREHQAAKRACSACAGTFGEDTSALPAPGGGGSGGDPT
Mu-type opioid receptor, sequence (P35372 whole entry): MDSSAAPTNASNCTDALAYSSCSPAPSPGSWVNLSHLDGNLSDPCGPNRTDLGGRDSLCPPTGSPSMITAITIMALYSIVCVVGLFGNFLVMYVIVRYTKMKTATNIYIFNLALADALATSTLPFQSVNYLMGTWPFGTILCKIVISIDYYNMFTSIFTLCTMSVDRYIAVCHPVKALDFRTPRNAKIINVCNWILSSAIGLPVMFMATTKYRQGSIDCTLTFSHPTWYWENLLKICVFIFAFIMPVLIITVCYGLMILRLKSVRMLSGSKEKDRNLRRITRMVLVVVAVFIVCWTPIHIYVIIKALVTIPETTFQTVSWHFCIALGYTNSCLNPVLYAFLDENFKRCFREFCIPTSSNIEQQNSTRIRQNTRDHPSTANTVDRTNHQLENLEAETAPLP
5-hydroxytryptamine receptor 2B, sequence (P41595 whole entry): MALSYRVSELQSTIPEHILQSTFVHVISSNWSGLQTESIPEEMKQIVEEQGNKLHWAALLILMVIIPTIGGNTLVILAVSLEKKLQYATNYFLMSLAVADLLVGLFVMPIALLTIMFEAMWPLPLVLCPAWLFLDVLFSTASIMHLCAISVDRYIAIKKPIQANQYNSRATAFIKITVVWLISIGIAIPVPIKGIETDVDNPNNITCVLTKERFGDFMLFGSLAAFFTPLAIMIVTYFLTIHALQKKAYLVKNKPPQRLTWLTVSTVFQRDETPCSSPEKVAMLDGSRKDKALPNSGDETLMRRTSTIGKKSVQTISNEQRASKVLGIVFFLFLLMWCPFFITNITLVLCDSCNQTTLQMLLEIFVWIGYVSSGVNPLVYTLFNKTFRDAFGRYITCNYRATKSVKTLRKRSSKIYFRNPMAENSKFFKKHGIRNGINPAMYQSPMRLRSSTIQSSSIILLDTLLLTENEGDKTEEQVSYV
T1 sequence (P23219 whole entry): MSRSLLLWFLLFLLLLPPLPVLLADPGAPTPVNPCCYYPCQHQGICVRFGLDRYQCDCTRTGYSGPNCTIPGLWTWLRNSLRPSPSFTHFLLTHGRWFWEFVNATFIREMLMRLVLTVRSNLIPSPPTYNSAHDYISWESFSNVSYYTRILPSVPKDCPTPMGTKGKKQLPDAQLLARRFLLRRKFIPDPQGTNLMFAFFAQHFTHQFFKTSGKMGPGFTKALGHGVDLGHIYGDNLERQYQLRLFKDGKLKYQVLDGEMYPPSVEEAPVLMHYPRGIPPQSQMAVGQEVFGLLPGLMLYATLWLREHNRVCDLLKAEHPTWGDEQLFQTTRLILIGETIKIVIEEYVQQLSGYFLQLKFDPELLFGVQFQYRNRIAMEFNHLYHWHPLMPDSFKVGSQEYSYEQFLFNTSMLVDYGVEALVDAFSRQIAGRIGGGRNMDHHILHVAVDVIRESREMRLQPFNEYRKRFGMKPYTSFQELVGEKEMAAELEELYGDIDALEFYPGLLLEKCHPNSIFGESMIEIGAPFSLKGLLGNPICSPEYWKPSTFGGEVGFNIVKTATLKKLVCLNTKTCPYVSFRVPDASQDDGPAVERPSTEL

Structure (SMILES) | AC50 [1] [µM] | AC50 [2] [µM] | AC50 [3] [µM] | AC50 [4] [µM] | AC50 [5] [µM] | AC50 [6] [µM] | AC50 [7] [µM] | AC50 [8] [µM] | AC50 [9] [µM] | AC50 [10] [µM] | AC50 [11] [µM]
CC(=O)Oc1ccc2c(c1)CC[C@@H]1[C@@H]2CC[C@]2(C)[C@@H](O)CC[C@@H]12 [ESTRADIOL ACETATE] | > 3 | 15 | 9.04 | > 30 | > 30 | > 30 | > 30 | 0.209 | > 30 | > 30 | > 30
Nc1ccc(S(=O)(=O)c2cnc(N)s2)cc1 [THIAZOLSULFONE] | > 30 | > 30 | > 30 | > 30 | > 30 | > 30 | > 30 | > 30 | > 30 | > 30 | > 30
NC1=NCC2c3ccccc3Cc3ccccc3N12 (stereo unspecified) [EPINASTINE] | > 30 | 2.53 | 17.4 | 0.253 | > 30 | > 30 | > 30 | > 30 | > 30 | > 30 | > 30
CC[C@H]1CN2CC[C@H]1C[C@H]2[C@H](O)c1ccnc2ccc(OC)cc12 [HYDROQUININE] | > 30 | > 30 | 8.13 | 3.59 | > 30 | > 30 | > 30 | > 30 | > 30 | > 30 | > 30
O=[N+]([O-])O[C@@H]1CO[C@H]2[C@@H]1OC[C@@H]2O [ISOSORBIDE MONONITRATE] | > 30 | > 30 | > 30 | > 30 | > 30 | > 30 | > 30 | > 30 | > 30 | > 30 | > 30
COC1=C(OC)C(=O)C(C/C=C(\C)CC/C=C(\C)CC/C=C(\C)CC/C=C(\C)CC/C=C(\C)CC/C=C(\C)CC/C=C(\C)CC/C=C(\C)CC/C=C(\C)CCC=C(C)C)=C(C)C1=O [UBIDECARENONE] | > 30 | > 30 | > 30 | > 30 | > 30 | > 30 | > 30 | > 30 | > 30 | > 30 | > 30
CCC(CC)(CC(=O)Nc1cccc(/C=C/c2nc(C3CCC3)cs2)c1)C(=O)O | > 30 | > 3 | > 30 | > 30 | > 10 | > 30 | > 30 | > 30 | > 30 | 26.2 | > 30
CC(C)(C)NCC(O)COc1cccc2c1SCCC2 (stereo unspecified) [TERTATOLOL] | > 30 | > 30 | > 30 | 6.6 | > 30 | > 30 | > 30 | > 30 | > 30 | > 30 | > 30
CC(=O)[C@@]1(O)CC[C@H]2[C@@H]3C=C(C)C4=CC(=O)CC[C@]4(C)[C@H]3CC[C@@]21C | > 30 | > 30 | > 30 | > 30 | > 30 | > 30 | > 30 | 0.285 | > 30 | > 30 | > 30
CC(C)(C)CC(C)(C)c1ccc(O)c(Cc2ccc(Cl)cc2Cl)c1 [CLOFOCTOL] | 29.2 | > 30 | 22 | > 30 | > 30 | > 30 | > 30 | 1.15 | 5.93 | 2.56 | > 30
CC(C)(C)C(=O)C(Oc1ccc(Cl)cc1)n1ccnc1 (stereo unspecified) [CLIMBAZOLE] | > 30 | 25.6 | > 30 | > 30 | > 30 | > 30 | > 30 | > 30 | > 30 | > 30 | > 30
CC(=O)OCC(=O)[C@@]1(O)CC[C@H]2[C@@H]3CCC4=CC(=O)C=C[C@]4(C)[C@@]3(Cl)[C@@H](Cl)C[C@@]21C [DICHLORISONE ACETATE] | > 30 | > 30 | > 30 | > 30 | > 30 | > 30 | > 30 | 0.173 | > 30 | > 30 | > 30
COc1ccc(C(=O)Nc2ccccc2CCC2CCCCN2C)cc1 (stereo unspecified) [ENCAINIDE] | > 30 | > 30 | > 30 | > 30 | > 30 | > 30 | > 30 | > 30 | > 30 | > 30 | > 30
OB1OCc2cc(F)ccc21 [TAVABOROLE] | > 30 | > 30 | > 30 | > 30 | > 30 | > 30 | > 30 | > 30 | > 30 | > 30 | > 30
NC(=O)C[C@H](N)C(=O)O [ASPARAGINE] | > 30 | > 30 | > 30 | > 30 | > 30 | > 30 | > 30 | > 30 | > 30 | > 30 | > 30
CCCCS(=O)(=O)N[C@@H](Cc1ccc(OCCCCC2CCNCC2)cc1)C(=O)O [TIROFIBAN] | > 30 | > 10 | > 30 | > 30 | > 30 | > 30 | > 30 | > 30 | > 30 | > 30 | > 30
